Source: patent US12522598B2, “3-(2-(heteroaryl)-pyridin-4-yl)-5-(trifluoromethyl)-1,2,4-oxadiazole derivatives as HDAC6 inhibitors” (ORYZON GENOMICS, S.A., priority 2019, dated 2026)
Structures can show the parent of a compound that is named as a salt.

Target: T1, HDAC6 (Homo sapiens, UniProt Q9UBN7)
T1 construct: purchased BPS Bioscience 50006
T1 sequence (Q9UBN7 1-1215): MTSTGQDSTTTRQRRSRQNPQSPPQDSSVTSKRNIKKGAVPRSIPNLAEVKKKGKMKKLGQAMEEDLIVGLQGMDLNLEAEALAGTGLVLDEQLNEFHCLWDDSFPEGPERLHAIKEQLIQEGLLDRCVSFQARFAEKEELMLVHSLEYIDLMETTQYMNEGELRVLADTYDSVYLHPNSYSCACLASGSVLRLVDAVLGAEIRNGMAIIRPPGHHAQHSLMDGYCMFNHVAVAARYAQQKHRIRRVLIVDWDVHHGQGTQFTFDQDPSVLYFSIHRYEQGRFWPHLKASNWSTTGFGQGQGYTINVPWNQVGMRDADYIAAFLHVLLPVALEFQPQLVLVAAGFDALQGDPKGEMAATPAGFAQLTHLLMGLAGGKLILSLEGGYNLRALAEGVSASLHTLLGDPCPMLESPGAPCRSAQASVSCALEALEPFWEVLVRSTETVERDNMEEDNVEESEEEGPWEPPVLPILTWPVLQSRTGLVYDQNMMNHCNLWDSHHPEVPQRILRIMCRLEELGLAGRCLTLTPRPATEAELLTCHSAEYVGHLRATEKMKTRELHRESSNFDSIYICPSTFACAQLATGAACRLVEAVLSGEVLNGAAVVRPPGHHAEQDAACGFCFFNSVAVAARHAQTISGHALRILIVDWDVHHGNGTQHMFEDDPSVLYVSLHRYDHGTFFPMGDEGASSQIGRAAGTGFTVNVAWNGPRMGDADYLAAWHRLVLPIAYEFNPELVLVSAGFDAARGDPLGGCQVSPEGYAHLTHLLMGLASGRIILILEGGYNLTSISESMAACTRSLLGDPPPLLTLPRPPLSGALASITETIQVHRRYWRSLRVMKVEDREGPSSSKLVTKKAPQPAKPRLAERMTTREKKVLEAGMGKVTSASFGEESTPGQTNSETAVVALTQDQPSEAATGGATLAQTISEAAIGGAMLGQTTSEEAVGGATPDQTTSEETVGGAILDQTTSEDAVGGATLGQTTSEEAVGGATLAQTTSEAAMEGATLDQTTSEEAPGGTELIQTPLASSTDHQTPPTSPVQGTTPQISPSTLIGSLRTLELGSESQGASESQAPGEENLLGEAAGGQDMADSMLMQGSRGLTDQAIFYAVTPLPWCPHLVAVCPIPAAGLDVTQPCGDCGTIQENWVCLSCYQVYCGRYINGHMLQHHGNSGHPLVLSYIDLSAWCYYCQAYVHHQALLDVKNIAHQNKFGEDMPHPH
Assay: HDAC6 enzyme inhibition assay (fluorimetric)
Format: biochemical
Details: 3 hours preincubation with enzyme, fraction of positive control; for inhibition at 0.1 µM: read-out: HDAC6 % inh @ 0.1 μM; for inhibition at 0.3 µM: read-out: HDAC6 % inh @ 0.3 μM; for inhibition at 1 µM: 1 μM test compound, read-out: HDAC6 % inh @ 1 μM
Protocol: A fluorimetric assay was used to determine the biochemical activity of the inhibitors on HDAC6 in 96-Well Half Area Black Microplates (Corning #3686)+TopSeal-A Black Sealing Film (Perkin Elmer #6050173). Test compounds were dissolved in DMSO. Half-log serial dilutions of test compounds were prepared in DMSO and then diluted 1:10 in assay buffer (BPS Bioscience #50031).
2.5 μL of enzyme (BPS Bioscience #50006) was incubated with 2.5 μL of test compounds for 3 hours in assay buffer with 0.1 mg/mL Bovine Serum Albumin (Sigma-Aldrich #A7030) at 21° C. in 22.5 μL total volume. The enzymatic reaction was started with the addition of 2.5 μL of a fluorogenic acetylated peptide substrate (BPS Bioscience #50037). The final concentration of enzyme and substrate in the reaction were 8.8 nM and 9 μM, respectively. After 45 minutes of incubation at 37° C., the addition of 25 μL of a development solution (BPS
Bioscience #50030) releases a fluorophore whose amount is proportional to the amount of the deacetylated product. Fluorescence intensity was measured after 15 minutes incubation at 21° C. with a Tecan Infinite F200 microplate reader (excitation 360 nm-emission 460 nm).
The negative control (background) was represented by the reaction mix in the absence of the enzyme (with 0.1% DMSO), while the positive control of deacetylase activity was obtained in the absence of test compounds (with 0.1% DMSO) after background subtraction. Percentage of inhibition was calculated as a fraction of the positive control.

Row | inhibition at 0.1 µM (0.1 μM test compound) [%] | inhibition at 0.3 µM (0.3 μM test compound) [%] | inhibition at 1 µM [%] | HDAC6 % inh @ 0.1 μM (0.1 μM test compound) [%] | HDAC6 % inh @ 0.3 μM (0.3 μM test compound) [%] | SMILES
1 | 69 | 86 | 95 |  |  | Cn1c(C(=O)N2CCNCC2)cc2cc(-c3cc(-c4noc(C(F)(F)F)n4)ccn3)ncc21 [Example 4, (1-Methyl-5-(4-(5-(trifluoromethyl)-1,2,4-oxadiazol-3-yl)pyridin-2-yl)-1H-pyrrolo[2,3-c]pyridin-2-yl)(piperazin-1-yl)methanone]
2 | 59 | 84 | 93 |  |  | Cn1c(C(=O)N2CCOCC2)cc2cc(-c3cc(-c4noc(C(F)(F)F)n4)ccn3)ncc21 [Example 3, (1-Methyl-5-(4-(5-(trifluoromethyl)-1,2,4-oxadiazol-3-yl)pyridin-2yl)-1H-pyrrolo[2,3-c]pyridin-2-yl)(morpholino)methanone mesylate]
3 | 79 | 91 | 96 |  |  | Cn1c(C(=O)N(CCO)CCO)cc2cc(-c3cc(-c4noc(C(F)(F)F)n4)ccn3)ncc21 [Example 1d, N,N-Bis(2-hydroxyethyl)-1-methyl-5-(4-(5-(trifluoromethyl)-1,2,4-oxadiazol-3-yl)pyridin-2-yl)-1H-pyrrolo[2,3-c]pyridine-2-carboxamide]
4 | 66 | 89 | 97 |  |  | COCCN(C)C(=O)c1cc2cc(-c3cc(-c4noc(C(F)(F)F)n4)ccn3)ncc2n1C [Example 2a, N-(2-Methoxyethyl)-N,1-dimethyl-5-(4-(5-(trifluoromethyl)-1,2,4-oxadiazol-3-yl)pyridin-2-yl)-1H-pyrrolo[2,3-c]pyridine-2-carboxamide hydrochloride]
5 | 61 | 82 | 94 |  |  | COCCn1nc(-c2cc(-c3noc(C(F)(F)F)n3)ccn2)c2nccc(Cl)c21 [Example 5, 3-(2-(7-Chloro-1-(2-methoxyethyl)-1H-pyrazolo[4,3-b]pyridin-3-yl)pyridin-4-yl)-5-(trifluoromethyl)-1,2,4-oxadiazole]
6 | 78 | 86 | 97 |  |  | Cn1c(C(=O)N2CC[C@@H](O)C2)cc2cc(-c3cc(-c4noc(C(F)(F)F)n4)ccn3)ncc21 [Example 2g, (R)-(3-Hydroxypyrrolidin-1-yl)(1-methyl-5-(4-(5-(trifluoromethyl)-1,2,4-oxadiazol-3-yl)pyridin-2-yl)-1H-pyrrolo[2,3-c]pyridin-2-yl)methanone hydrochloride]
7 | 72 | 88 | 95 |  |  | CN(CCO)C(=O)c1cc2cc(-c3cc(-c4noc(C(F)(F)F)n4)ccn3)ncc2n1C [Example 1b, N-(2-Hydroxyethyl)-N,1-dimethyl-5-(4-(5-(trifluoromethyl)-1,2,4-oxadiazol-3-yl)pyridin-2-yl)-1H-pyrrolo[2,3-c]pyridine-2-carboxamide]
8 |  |  |  | 59 | 87 | Cn1c(C(=O)N2CCOCC2)cc2cc(-c3cc(-c4noc(C(F)(F)F)n4)ccn3)ncc21 [Example 1, (1-Methyl-5-(4-(5-(trifluoromethyl)-1,2,4-oxadiazol-3-yl)pyridin-2-yl)-1H-pyrrolo[2,3-c]pyridin-2-yl)(morpholino)methanone]
9 | 89 | 95 | 96 |  |  | CCN(C)C(=O)c1cc2cc(-c3cc(-c4noc(C(F)(F)F)n4)ccn3)ncc2n1C [Example 2b, N-Ethyl-N,1-dimethyl-5-(4-(5-(trifluoromethyl)-1,2,4-oxadiazol-3-yl)pyridin-2-yl)-1H-pyrrolo[2,3-c]pyridine-2-carboxamide hydrochloride]
10 | 28 | 56 | 80 |  |  | COCCn1nc(-c2cc(-c3noc(C(F)(F)F)n3)ccn2)c2nccnc21 [Example 1g, 3-(2-(1-(2-Methoxyethyl)-1H-pyrazolo[3,4-b]pyrazin-3-yl)pyridin-4-yl)-5-(trifluoromethyl)-1,2,4-oxadiazole]
11 | 74 | 91 |  |  |  | CN(C)CCCN(C)C(=O)c1cc2cc(-c3cc(-c4noc(C(F)(F)F)n4)ccn3)ncc2n1C [Example 1a, N-(3-(Dimethylamino)propyl)-N,1-dimethyl-5-(4-(5-(trifluoromethyl)-1,2,4-oxadiazol-3-yl)pyridin-2-yl)-1H-pyrrolo[2,3-c]pyridine-2-carboxamide]
12 | 64 | 86 | 96 |  |  | C[C@H]1COCCN1C(=O)c1cc2cc(-c3cc(-c4noc(C(F)(F)F)n4)ccn3)ncc2n1C [Example 2d, (S)-(1-Methyl-5-(4-(5-(trifluoromethyl)-1,2,4-oxadiazol-3-yl)pyridin-2-yl)-1H-pyrrolo[2,3-c]pyridin-2-yl)(3-methylmorpholino)methanone hydrochloride]
13 | 71 | 91 | 97 |  |  | COCCN(CCOC)C(=O)c1cc2cc(-c3cc(-c4noc(C(F)(F)F)n4)ccn3)ncc2n1C [Example 2c, N,N-Bis(2-methoxyethyl)-1-methyl-5-(4-(5-(trifluoromethyl)-1,2,4-oxadiazol-3-yl)pyridin-2-yl)-1H-pyrrolo[2,3-c]pyridine-2-carboxamide hydrochloride]
14 | 54 | 81 | 94 |  |  | FC(F)(F)c1nc(-c2ccnc(-c3nn(CC4CCOCC4)c4cccnc34)c2)no1 [Example 1f, 3-(2-(1-((Tetrahydro-2H-pyran-4-yl)methyl)-1H-pyrazolo[4,3-b]pyridin-3-yl)pyridin-4-yl)-5-(trifluoromethyl)-1,2,4-oxadiazole]
15 | 85 | 94 | 98 |  |  | CN1CCC(CN(C)C(=O)c2cc3cc(-c4cc(-c5noc(C(F)(F)F)n5)ccn4)ncc3n2C)CC1 [Example 1c, N,1-Dimethyl-N-((l-methylpiperidin-4-yl)methyl)-5-(4-(5-(trifluoromethyl)-1,2,4-oxadiazol-3-yl)pyridin-2-yl)-1H-pyrrolo[2,3-c]pyridine-2-carboxamide]
16 | 68 | 88 | 95 |  |  | COCCCn1nc(-c2cc(-c3noc(C(F)(F)F)n3)ccn2)c2ncccc21 [Example 1e, 3-(2-(1-(3-Methoxypropyl)-1H-pyrazolo[4,3-b]pyridin-3-yl)pyridin-4-yl)-5-(trifluoromethyl)-1,2,4-oxadiazole]

Row | SMILES | inhibition at 0.1 µM (0.1 μM test compound) [%] | inhibition at 0.3 µM (0.3 μM test compound) [%] | inhibition at 1 µM [%] | HDAC6 % inh @ 0.1 μM (0.1 μM test compound) [%] | HDAC6 % inh @ 0.3 μM (0.3 μM test compound) [%]
17 | Cn1c(C(=O)N2CC[C@H](O)C2)cc2cc(-c3cc(-c4noc(C(F)(F)F)n4)ccn3)ncc21 [Example 2h, (S)-(3-Hydroxypyrrolidin-1-yl)(1-methyl-5-(4-(5-(trifluoromethyl)-1,2,4-oxadiazol-3-yl)pyridin-2-yl)-1H-pyrrolo[2,3-c]pyridin-2-yl)methanone hydrochloride] | 65 | 80 | 94 |  | 
